# Reference: PubChem BioAssay AID602267 (Broad Institute, 2012)
# Active and inactive are the calls of the source.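 How the source made its calls: active means signal falls with dose and the fitted half-maximal concentration is at or below twice the top valid tested dose; inconclusive means flat curve with 30 to 70% inhibition, or poor fit; inactive means wrong direction, flat within 30%, or potency beyond limit.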
# Biological target: Golgi-associated PDZ and coiled-coil motif-containing protein (Homo sapiens) (UniProt Q9HD26)
# Test: CAL PDZ domain peptide-binding inhibitors, dose response, biochemical, fluorescence polarization, untagged CAL PDZ, cherry-pick (AID 602267)
# Conditions: purified CAL PDZ, TMR-peptide fluorescence polarization, 1 h
row,Structure (SMILES),AC50
1,COC(=O)c1ccccc1-c1c2ccc(=N)cc-2oc2cc(N)ccc12,2.03 µM
2,CCOc1ccc2c(c1)C(NC(C)=O)C(=O)N2CCN1CCOCC1 (stereo not given),> 100 µM (inactive)
3,COc1ccc(S(=O)(=O)Nc2cc(SCC(=O)O)c(O)c3ccccc23)cc1,34.2 µM

# Same assay, conditions: purified CAL PDZ, TMR-peptide fluorescence polarization, 1 h; at 16 µM (top of the series)
row,Structure (SMILES),"activity change, negative = inhibition"
1,COCCCNC(=O)c1c[nH]c2ccc(S(=O)(=O)N3CCC(C)CC3)cc2c1=O,inactive
2,COc1ccc2c(c1)c(=Cc1ccc(N(C)C)cc1)c1cc(-c3ccccc3)[n+](C)n12,inactive

# Same assay, conditions: purified CAL PDZ, TMR-peptide fluorescence polarization, 1 h; at 50 µM (top of the series)
row,Structure (SMILES),"activity change, negative = inhibition"
1,Cc1ccc(CN2CCN(Cc3nc4ccccc4nc3C)CC2CCO)cc1 (stereo not given),inactive
2,FC(F)(F)c1cc(-c2cccs2)nc2ncnn12,inactive
3,O=C(c1ccccc1)c1c2c(cc3sc4ccccc4[n+]13)-c1cccc3cccc-2c13,inactive
4,O=C(NCCCn1ccnc1)c1ccccc1F,inactive
5,CSc1ccc(CNCCCSc2ncccn2)cc1,inactive
6,CCCOc1ccc(S(=O)(=O)Nc2ccccn2)c2ccccc12,inactive
7,Cn1c(=O)c2c(ncn2CC(=O)Nc2nc(-c3ccccc3Cl)cs2)n(C)c1=O,inactive
8,CN(C)c1ccc(C=c2c3cc(O)ccc3n3c2cc(-c2ccccc2)[n+]3C)cc1,inactive
9,c1ccc2[nH]c(CCNC3CCCCC3)nc2c1,inactive
10,CCOc1ccc(S(=O)(=O)N2CCCCC2)c(C)c1C,inactive
11,Cn1c(=O)c2c(nc(-c3ccc(N(CCCl)CCCl)cc3)n2C)n(C)c1=O,inactive
12,Cc1cc(C(=O)CN2CCCC2)c(C)n1-c1ccc(Cl)cc1,inactive
13,O=C(c1ccc(F)cc1Cl)N1CCC2(CC1)OCCO2,inactive
14,CCCCOc1ccc(C(=O)N2CCNC(=O)C2CC(=O)OC(C)C)cc1 (stereo not given),inactive
15,Nc1ncnc2c1C(c1ccccc1)c1c(ccc3ccccc13)O2 (stereo not given),inactive
16,Nc1nc2ccccc2cc1S(=O)(=O)c1ccccc1,inactive
17,Cc1ccc(C(C)NC(=O)Cc2cccs2)c(C)c1 (stereo not given),inactive
18,O=C(Nc1nccs1)c1ccc(F)c(S(=O)(=O)N2CCOCC2)c1,inactive
19,O=C(Cc1ccccc1)NN=C1CCCC1,inactive
20,CCOC(=O)N1CCN(Cc2nc3c(c(=O)n(C)c(=O)n3C)n2Cc2cccc(C)c2)CC1,inactive
21,Cc1ccc(F)cc1N=Cc1c(O)c2ccccc2oc1=O,inactive
22,Cc1cc(Cl)c(Cl)cc1S(=O)(=O)NCCCn1ccnc1,inactive
23,Oc1ccc(/C=N\Nc2nncc(-c3ccccc3)n2)cc1,inactive

row,Structure (SMILES),"activity change, negative = inhibition"
1,COC(=O)N/N=C/c1sc(N2CCCCC2)nc1-c1cccs1,inactive
2,CC(C)c1ccc(CNC(=O)C(=O)NCCCn2ccnc2)cc1,inactive
3,COc1ccc(OC)c(S(=O)(=O)NCCCn2ccnc2)c1,inactive
4,CC1Cc2ccccc2N1C(=O)CNc1ccccc1N1CCCCC1 (stereo not given),inactive
5,C/C(=N\NC(=O)c1cc(-c2ccc(C)s2)nc2ccccc12)c1cccnc1,inactive
6,COc1cccc(-c2cccc(NC(=O)C3CCN(Cc4ccc(CO)o4)CC3)c2)c1,inactive
7,c1cc(-c2nnc(-c3ccncc3)o2)ccn1,inactive
8,COc1ccc(C(=O)c2ccc(C)cc2)c(OC)c1OC,inactive
9,COc1ccc(/C=C2\N=C(c3ccc(C)cc3)OC2=O)cc1,inactive
10,O=C(CN(Cc1ccccc1)S(=O)(=O)c1ccc(F)cc1)NCCC1=CCCCC1,inactive
11,CCN(C(=O)CSc1ncccc1C(=O)O)C1CCCCC1,inactive
12,Cc1ccc2nc(NCc3ccc(F)cc3)c3nncn3c2c1,inactive
13,C=CCNC(=O)CC1Nc2c3ccccc3nc(=S)n2C1=O (stereo not given),inactive
14,O=C(NC1(C(F)(F)F)NC(=O)N(C2CCCCC2)C1=O)C1CC1 (stereo not given),inactive
15,C(=N\N1CCOCC1)/c1nc(-c2ccccc2)n2ccccc12,inactive
16,Cc1ccc(S(=O)(=O)N2CCN(C(=O)N(C)C)CC2)cc1,inactive
17,Cc1ccc2nc3c(nc2c1)-c1ccccc1C3=O,inactive
18,Cc1sc(NC(=O)c2ccco2)c(C(Nc2ccccn2)c2ccccc2)c1C (stereo not given),inactive
19,Cc1ccc(NC(=O)CN(C)CC(=O)Nc2cccc(F)c2)cc1S(=O)(=O)N1CCCCCC1,inactive
20,C/C(=N\NC(=O)C(O)c1ccccc1)c1ccc(Cl)s1 (stereo not given),inactive
21,CCOC(=O)C1=C(C)OC(N)=C(C#N)C1c1cccc(C)c1 (stereo not given),inactive
22,CC(C)CN1CCN(Cc2cccc3c2OCO3)CC1CCO (stereo not given),inactive
23,Cc1cccc(NC(=O)Cn2cnc3c(oc4ccccc43)c2=O)c1C,inactive

row,Structure (SMILES),"activity change, negative = inhibition"
1,CCOc1ccc(C(=O)NCC(=O)N2CCC(C)CC2)cc1OCC,inactive
2,O=C(/C=C/c1cccs1)Nc1scc(-c2ccccc2)c1C(=O)O,inactive
3,CC(CCCC(C)(C)O)NC(=O)c1ccc(OC2CCN(C(=O)C3CC3)CC2)cc1 (stereo not given),inactive
4,COc1cc(Cl)c(CN2CCCC(CO)(Cc3cccc(Cl)c3)C2)cc1OC (stereo not given),inactive
5,CCOC(=O)NC(=O)COC(=O)CCCSc1nc2ccccc2s1,inactive
6,Cc1cccc(Nc2nc(-c3ccc(F)cc3)cs2)n1,inactive
7,Cc1ccc(CNC2CCCCC2)s1,inactive
8,CCc1nc2ccccc2c(C(=O)Oc2cccc3cccnc23)c1C,inactive
9,CC12CNCC(C)(CN(C3(O)C(=O)Nc4ccc(Br)cc43)C1)C2=O (stereo not given),inactive
10,Cc1cc(=O)n2c3ccccc3n(CC(O)CN3CCN(CCO)CC3)c2c1C#N (stereo not given),inactive
11,CCn1c(=O)c(C(C)=O)c(O)c2ccccc21,inactive
12,O=C1CN(C(=O)CC2C(=O)NCCN2Cc2ccccc2C(F)(F)F)CCN1 (stereo not given),inactive
13,O=C(O)c1ccc(S(=O)(=O)c2ccc3c(c2)C(=O)N(c2ccccc2[N+](=O)[O-])C3=O)cc1,inactive
14,O=C(COC(=O)c1cccnc1Cl)Nc1ccc2c(c1)OCO2,inactive
15,O=C(CN1C(=O)NC2(CCCC2)C1=O)Nc1ccc(F)c(F)c1F,inactive
16,O=C1CN=C(c2ccccc2)c2oc3ccc(Br)cc3c2N1,inactive
17,N#Cc1ccc(CC(=O)c2ccccc2)[nH]c1=O,inactive
18,O=C(NC1CCCN(Cc2ccc(Cl)cc2)C1)c1cccc(N2CCCC2=O)c1 (stereo not given),inactive
19,CCNS(=O)(=O)c1ccc(CCC(=O)N2CCCC2)cc1,inactive
20,O=C(NNC(=S)NC(=O)c1ccc(Br)cc1)c1ccc([N+](=O)[O-])cc1,inactive
21,Cc1ccc2nc(NC(=O)COC(=O)c3ccncc3)sc2c1,inactive
22,Cc1ccc2nc(CSc3nnc(-c4ccncc4)n3C)cc(=O)n2c1,inactive
23,CCCSC1=N/C(=C\c2ccc([N+](=O)[O-])o2)C(=O)S1,inactive

row,Structure (SMILES),"activity change, negative = inhibition"
1,Cc1c(C(=O)OCC(=O)NC(=O)NC2CCCCC2)cccc1[N+](=O)[O-],inactive
2,CCCCNC(=S)NNc1c(Cl)cc(Cl)cc1Cl,inactive
3,COc1ccc(Nc2cccccc2=O)cc1,inactive
4,COc1cccc(CN2CCN(C3CSCCSC3)CC2CCO)c1 (stereo not given),inactive
5,CCOc1ccc(N(CC(=O)N2CCN(Cc3ccccc3)CC2)S(C)(=O)=O)cc1,inactive
6,CC1CCCC(C)N1/N=C/c1ccc(N(C)C)cc1 (stereo not given),inactive
7,CC(=O)c1ccc(S(=O)(=O)N2CCN(c3ccccc3F)CC2)cc1,inactive
8,COc1ccc(NC(=O)c2cnn(-c3ccccc3)c2C)c(OC)c1,inactive
9,CN1CC(=O)N(CC(=O)Nc2ccc(Br)cc2F)C1=O,inactive
10,Cc1cc(C)c(S(=O)(=O)NCc2ccc3c(c2)OCO3)c(C)c1,inactive
11,Cc1nc(N)c(CC(Br)CBr)c(Cl)n1 (stereo not given),inactive
12,Cc1nc2ccc(Br)cn2c1C(=O)N/N=C\c1ccc(C(C)C)cc1,inactive
13,Cc1cc(C(=O)Nc2ccccc2Cl)c2ccccc2n1,inactive
14,CCCC(=O)OCC(=O)Nc1ccccc1C#N,inactive
15,O=C(CCCn1c(=S)[nH]c2cc3c(cc2c1=O)OCO3)N1CCN(c2ccc(Cl)cc2)CC1,inactive
16,CC(=O)Nc1cc(NC(C)=O)cc(C(=O)OCC(=O)Nc2ccc(S(=O)(=O)NC3=NCCCCC3)cc2)c1,inactive
17,Cc1ccc(NC(=O)N2CCCC2C(=O)NCC2CCCO2)cc1 (stereo not given),inactive
18,COc1ccccc1NC(=O)N(c1c(N)n(Cc2ccccc2)c(=O)[nH]c1=O)C1CCCC1,inactive
19,O=C(Nc1cccc(F)c1)c1ccco1,inactive
20,Cc1cc(C)nc(/N=C(\N)N2CCc3ccccc32)n1,inactive
21,COCCN(C(=S)Nc1ccccc1OC)C1CCN(C(C)C)CC1,inactive
